Source: US20180007910A1, “FUNGICIDAL COMPOSITION EFFECTIVE AGAINST ALTERNARIA ON CITRUS” (ARYSTA LIFESCIENCE BENELUX SPRL, priority 2015, published 2018)

Key:
mandarins = assay: Phytotoxicity observation in field trial 2014; assay type: in vivo; conditions: field trial 2014 on mandarins, Syllit 544 g/l suspension concentrate
Description: (§1) A field trial was conducted for the control of Alternaria alternata on mandarins in Alzira, Valencia, Spain. The product used was Syllit 544 g/l suspension concentrate. Mandarins were harvested and classified using the OECD criteria (international quality standard for citrus established by the Organisation for Economic Co-operation and Development in 2010).

Alternaria alternata = assay: Field trial 2014, control of Alternaria alternata on mandarins (Alzira, Valencia, Spain); assay type: in vivo; conditions: Syllit 544 g/l suspension concentrate; spring, autumn and combined treatments; OECD criteria; FIG. 9
Description: as §1

## CC(=O)O.CCCCCCCCCCCCNC(=N)N [Dodine, 1-dodecylguanidiniumethanoate]
mandarins
  symptoms of phytotoxicity: No symptoms of phytotoxicity were observed
Alternaria alternata
  percentage of fruits in the category Extra compared to control group: significantly higher percentage of fruit
